In patent publication US9157909B2, “Male reproductive health panel and uses thereof” (priority 2007, dated 2015):
Read-outs that look alike come from different tables or passages of the source.

How the values were obtained:
human sperm [1] = conditions: 50 and 100 μM H2O2 (15 min); 10, 50 and 100 μM H2O2 (1 hr)
Procedure: (§1) Sperm was isolated from the seminal plasma as previously described in Brown et al. 1995. The sperm pellet was resuspended in phosphate buffered saline (PBS), pH=7.4, and divided into 4 aliquots. Each aliquot (equal sperm concentrations) was incubated at 37° C. in PBS with H2O2 concentrations of 0, 10, 50, and 100 μM for 15 min and 1 hr. All aliquots were divided into 2 portions. One portion was used to determine LPO.

human sperm [2] = conditions: for sperm heavily labeled by ^3H-TTP incorporation: incubation not printed (15 min implied)
Procedure: FIG. 3: HSAA—The effect of oxidative stress on DNA synthesis. Pictorial representation of autoradiographs of control untreated sperm (A-E) and sperm exposed to 100 μM H2O2 for 1 hr (a-e) assayed in the HSAA in the presence of ^3H-TTP. All the pictures were photographed using bright microscopy 60× objective. […] All pictures were printed at the same magnification.
(§2) In vitro oxidative stress exposure; human sperm from a fertile […] were exposed to increasing hydrogen peroxide (H2O2) concentrations (0, 10, 50 and 100 μM), and incubated at 37° C., for 15 min and 1 hr.
as §1
(§3) The remaining portion was centrifuged at 1500 g for 15 min at room temperature. The pellet was analyzed in the HSAA.

sperm [3] = conditions: comet assay, direct exposure of sperm; cited from earlier work
human sperm [4] = system: human sperm
Procedure: as §2, §1, §3
Sperm chromatin decondensation and nuclear recondensation were evaluated in sperm exposed to increasing concentrations of H2O2 for 15 min and 1 hr using the HSAA. Sperm were analyzed at different incubation times in the egg extract using the image analysis Methamorph software system. The sperm nuclear activation was scored in 5 categories: 1) full decondensation: sperm diameter 25-30 μm, 2) partial decondensation: sperm diameter<25 μm, 3) non-decondensed, 4) hyperdecondensed: sperm diameter>(25-30 μm), and full recondensation.

human sperm [5] = experiment: HSAA of sperm exposed to ROS from PMA-activated PMNL with or without Trolox; format: cell-based
Procedure: PMNLs were isolated from blood of healthy donors by density gradient centrifugation. Activation and the number of peroxidase-positive leukocytes were determined using the Endtz test. Sperm from fertile males were isolated using percoll gradients (40 and 80%). Sperm from the 80% fraction was divided into 6 aliquots: 1) control non-treated sperm, 2) sperm treated with ROS inducer phorbol-12 myristate-13 acetate (PMA), 3) non-treated sperm with non-treated PMNL, 4) sperm with PMA treated PMNL, 5) sperm with PMA treated PMNL plus Trolox 40 μM, and 6) non-treated sperm plus Trolox 40 μM. Following an incubation period, sperm were evaluated for (A) sperm activation events in the HSAA, evaluating sperm activation events (decondensation, DNA synthesis, and recondensation) at 15 min, and 2 hr, and (B) determining ROS levels via nitroblue of tetrazolium (NBT) and spectrophotometry.

sperm [6] = conditions: sperm exposed to hydroxylamine, analyzed in the HSAA; cited from earlier work
[7] = Trolox 40 μM with PMA treated PMNL (oxidative stress)

OO [H2O2, hydrogen peroxide]
LPO (amount of MDA and hydroxyalkenals), means compared to untreated control sperm (human sperm [1]): significantly different | ^3H-TTP incorporation (autoradiography) (human sperm [2]; 10 μM H2O2, 15 min and 1 hr exposure, 2 and 3 hr incubations in egg extract): normal ^3H-TTP incorporation | ^3H-TTP incorporation (autoradiography) (human sperm [2]; 10 μM H2O2, 15 min and 1 hr exposure, 5 and 15 min incubations in egg extract): no incorporation of ^3H-TTP | heavily labeled sperm (^3H-TTP) (human sperm [2]; 10 μM H2O2, 15 min and 1 hr exposures, 3 hr incubation in egg extract): 98±2% | sperm positive for ^3H-TTP incorporation (human sperm [2]; 10 μM H2O2, 15 min and 1 hr exposures, incubation time not printed (15 min in egg extract implied)): No sperm were positive | sperm positive for ^3H-TTP incorporation (human sperm [2]; 10 μM H2O2, 5 min incubation in egg extract per heading (sentence prints 15 min extract incubation)): No sperm were positive | sperm heavily labeled by ^3H-TTP incorporation (human sperm [2]; 50 μM H2O2, 15 min exposure): 10±2% | sperm heavily labeled by ^3H-TTP incorporation (human sperm [2]; 100 μM H2O2, 15 min exposure): 50±5% | onset of DNA synthesis (autoradiograph, FIG. 3b) (human sperm [2]; 100 μM H2O2, 1 hr exposure, 5 min incubation in egg extract): early initiation of DNA synthesis | onset of DNA synthesis (autoradiograph, FIG. 3c) (human sperm [2]; 100 μM H2O2, 1 hr exposure, 15 min incubation in egg extract): early initiation of DNA synthesis | sperm heavily labeled by ^3H-TTP incorporation (human sperm [2]; 100 μM H2O2, 1 hr exposure): 45±9% | ^3H-TTP incorporation (autoradiography) (human sperm [2]; 50 and 100 μM H2O2, 15 min and 1 hr exposure): abnormal ^3H-TTP incorporation | H2O2 concentration at which induction of DNA fragmentation was significant (sperm [3]): 200 µM | hyper-decondensed sperm (human sperm [4]; 10 μM H2O2, 2 and 3 hr incubation in egg extract (results combined)): No sperm were hyper-decondensed | recondensation appearance (FIG. 3d, e) (human sperm [4]; 100 μM H2O2, 1 hr exposure, 2 and 3 hr incubation in egg extract): irregular recondensation | recondensed sperm (human sperm [4]; 10 and 50 μM H2O2, 15 min exposure, 15 min incubation in egg extract): No recondensed sperm were observed | non-decondensed sperm (human sperm [4]; other concentrations (50 and 100 μM H2O2), any exposure time point, 15 min incubation in egg extract): no sperm were non-decondensed

Cc1c(C)c2c(c(C)c1O)CCC(C)(C(=O)O)O2 (stereo not shown) [Trolox, 6-Hydroxy-2,5,7,8-tetramethylchroman-. 2-carboxylic acid]
decondensation response (human sperm [5]; [7]): improved responses in decondensation | early ^3H-TTP incorporation (human sperm [5]; [7]): no early ^3H-TTP incorporation | sperm having recondensed chromatin (human sperm [5]; Trolox 40 μM with PMA treated PMNL, 2 hr time point, only 57% without Trolox): 78%

NO [hydroxylamine]
onset of DNA synthesis (sperm [6]): early initiation of DNA synthesis | sperm decondensation response (sperm [6]): minimal decondensation
